Measured values as given in PMC5394417, “Investigating the molecular mechanism of positive and negative allosteric modulators in the calcium-sensing receptor dimer” (Scientific Reports, 2017).

Biological target: T1, HA-I841A CaSR mutant (Rattus norvegicus, UniProt P48442, I841A)
T1 construct: mGluR5 signal peptide (N); expressed in transfected cells; host or cells: HEK293T
T1 sequence (P48442 20-1079 I841A): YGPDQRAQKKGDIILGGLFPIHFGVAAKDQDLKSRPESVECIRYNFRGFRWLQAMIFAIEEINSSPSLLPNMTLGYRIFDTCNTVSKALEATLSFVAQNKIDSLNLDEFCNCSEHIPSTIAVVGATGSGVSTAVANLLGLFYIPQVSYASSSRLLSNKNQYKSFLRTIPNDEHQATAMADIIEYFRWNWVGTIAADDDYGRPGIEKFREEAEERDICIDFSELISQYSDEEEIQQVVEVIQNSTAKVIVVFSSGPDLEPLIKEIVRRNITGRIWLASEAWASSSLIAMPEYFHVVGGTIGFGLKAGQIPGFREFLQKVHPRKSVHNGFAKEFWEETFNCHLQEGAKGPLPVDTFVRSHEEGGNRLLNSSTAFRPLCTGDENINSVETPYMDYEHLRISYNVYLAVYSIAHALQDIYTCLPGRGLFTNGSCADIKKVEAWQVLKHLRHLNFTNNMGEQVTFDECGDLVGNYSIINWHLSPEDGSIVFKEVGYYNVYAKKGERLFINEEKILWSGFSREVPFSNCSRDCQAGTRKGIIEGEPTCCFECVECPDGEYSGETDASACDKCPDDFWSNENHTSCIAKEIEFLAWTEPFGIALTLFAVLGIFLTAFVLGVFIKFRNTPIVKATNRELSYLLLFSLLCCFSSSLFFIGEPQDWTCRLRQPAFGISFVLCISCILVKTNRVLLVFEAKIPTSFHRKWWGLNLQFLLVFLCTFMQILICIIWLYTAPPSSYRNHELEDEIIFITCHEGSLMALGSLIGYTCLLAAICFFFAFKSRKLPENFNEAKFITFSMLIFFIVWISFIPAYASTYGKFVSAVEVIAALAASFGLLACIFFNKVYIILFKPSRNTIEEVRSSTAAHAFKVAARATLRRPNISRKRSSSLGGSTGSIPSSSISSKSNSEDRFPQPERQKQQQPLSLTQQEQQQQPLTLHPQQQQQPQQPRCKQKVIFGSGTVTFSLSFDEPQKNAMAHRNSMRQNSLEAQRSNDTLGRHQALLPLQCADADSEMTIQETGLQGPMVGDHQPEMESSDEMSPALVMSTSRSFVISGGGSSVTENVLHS
Assay: IP-One assay, HEK293T transiently transfected
Type: cell-based

## [Ca+2] [Ca^2+]
Ca^2+ alone
  EC50: 2.59 mM
  pEC50 ± S.E.M.: 2.59 ± 0.01
Ca^2+ alone, normalized to maximum response of WT CaSR
  Max ± S.E.M.: 81 ± 14%
Ca^2+ with 1 μM NPS R-568
  EC50: 3.68 mM
Ca^2+ with 1 μM NPS R-568, normalized to maximum response with Ca^2+ alone for the construct
  Max ± S.E.M.: 99 ± 18%
Ca^2+ with 5 μM NPS 2143
  EC50: 5.29 mM
  pEC50 ± S.E.M.: 2.28 ± 0.03
Ca^2+ with 5 μM NPS 2143, normalized to maximum response with Ca^2+ alone for the construct
  Max ± S.E.M.: 97 ± 7.6%
